Results taken from patent US6121297A, “Cyanoguanidines as cell proliferation inhibitors” (Leo Pharmaceutical Products Ltd. A/S, priority 1997, dated 2000).

Key:
Type in all cases: cell-based
[1] = test system: human breast cancer (MCF-7); experiment: Inhibition of tumour cell proliferation in vitro, MCF-7 ([3H]thymidine incorporation); conditions: MCF7, human MCF-7 cells, 24 hours, DNA synthesis by [3H]thymidine incorporation
Protocol: (§1) The inhibition of tumour cell proliferation was studied using different types of human cancer cell lines. The cell lines under investigation were small cell lung carcinoma (NYH), non small cell lung carcinoma (NCI-H460), and breast cancer (MCF-7) using the following general procedure:
(§2) The cells were cultured in vitro for 24 hours in the presence of the compound under investigation. DNA synthesis was measured by incorporation of [3H]thymidine, and the median inhibitory concentrations (IC50) of the compounds were calculated.

[2] = test system: human small cell lung carcinoma (NYH); experiment: Inhibition of tumour cell proliferation in vitro, NYH ([3H]thymidine incorporation); conditions: human NYH cells, 24 hours, DNA synthesis by [3H]thymidine incorporation
Protocol: as §1, §2

[3] = test system: human non small cell lung cancer (NCI-H460); experiment: Inhibition of tumour cell proliferation in vitro, NCI-H460 ([3H]thymidine incorporation); conditions: human NCI-H460 cells, 24 hours, DNA synthesis by [3H]thymidine incorporation
Protocol: as §1, §2

IC50 [1] [nM] | IC50 [2] [nM] | IC50 [3] [nM] | Compound
250 | 45 | 67 | N#CN=C(NCCCCCOc1ccccc1)Nc1ccncc1 [Prior art B, NCyano-N(5-phenoxypentyl)-N4-pyridylguanidine, reference compound]
920 | 380 | > 1000 | N#CN=C(NCCCCOc1ccccc1)Nc1ccncc1 [Prior art A, NCyano-N(4-phenoxybutyl)-N4-pyridylguanidine, reference compound]
18 | 5.3 | 43 | N#CNC(=Nc1ccncc1)NCCCCCCCCCOc1ccccc1 [Example No. 4, N-Cyano-N'-(9-phenoxynonyl)-N"-4-pyridylguanidine]

Continued, compound first:

Compound | IC50 [1] [nM] | IC50 [2] [nM] | IC50 [3] [nM]
N#CNC(=Nc1ccncc1)NCCCCCCCCCCOc1ccccc1 [Example No. 3, N-Cyano-N'-(10-phenoxydecyl)-N"-4pyridylguanidine] | 13 | 5.9 | 49
N#CNC(=Nc1ccncc1)NCCCCCCCCCCCOc1ccccc1 [Example No. 1, N-Cyano-N'-(11-phenoxyundecyl)-N"-4-pyridylguanidine] | 21 | 4.5 | –
